Molecular target: α7 nAChR subtype (Rattus norvegicus, UniProt Q05941)
Assay type: binding
Details: read-out: KD of radioligand (saturation curves, one site model)

Sequence of α7 nAChR subtype (Q05941 23-502 limits assumed): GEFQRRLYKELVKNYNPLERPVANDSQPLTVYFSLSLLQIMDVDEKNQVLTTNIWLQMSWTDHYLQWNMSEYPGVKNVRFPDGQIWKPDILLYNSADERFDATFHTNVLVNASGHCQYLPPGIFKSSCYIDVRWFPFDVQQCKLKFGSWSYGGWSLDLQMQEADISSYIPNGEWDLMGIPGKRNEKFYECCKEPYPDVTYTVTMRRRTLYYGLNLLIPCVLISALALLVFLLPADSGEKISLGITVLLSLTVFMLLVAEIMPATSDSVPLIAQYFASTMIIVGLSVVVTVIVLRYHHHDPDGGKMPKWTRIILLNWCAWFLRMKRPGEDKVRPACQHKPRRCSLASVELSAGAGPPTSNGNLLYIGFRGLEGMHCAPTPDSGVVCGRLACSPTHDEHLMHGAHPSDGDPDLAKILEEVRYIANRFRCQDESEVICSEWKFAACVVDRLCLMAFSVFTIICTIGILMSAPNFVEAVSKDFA

Substance [^125I]-α-Bungarotoxin [[^125I]-α-BTX] has a Kd of 1.67 nM.

— patent US7186836B2 (priority 2002, dated 2007)
